According to patent US9492376B2, “Polymer-conjugated albumin hydrogels for controlled release of therapeutic agents” (TECHNION RESEARCH AND DEVELOPMENT FOUNDATION LTD., priority 2008, dated 2016):

Experiments:
[1] = Warfarin fluorescence and albumin binding; settings: for Fluorescence Intensity Ratio Comparing to Warfarin Alone: 5 mg/ml protein in PBS, 10:1 molar ratio albumin to Warfarin, ~5 hours incubation, excitation 320 nm, emission 385 nm, n = 6
Protocol: The mixture was incubated for ˜5 hours before reading fluorescence emission (λ=385 nm) at a 320 nm excitation wavelength using a Varioscan spectral scanning multimode reader (Thermo Electron Corporation, Vantaa, Finland).

[2] = Equilibrium dialysis of Warfarin with wild-type or PEGylated albumin; assay type: binding; settings: result in words; for affinity of Warfarin to the protein by equilibrium dialysis: equilibrium at about 24 hr, compared to wild-type albumin
Protocol: The two chambers of the device were separated by a dialysis membrane (12-14 kDa MW cutoff) and drug diffusion was measured by fluorescence spectroscopy. One dialysis chamber of the device was filled with 25 ml PBS solution containing 0.1% (w/v) of sodium azide (Fluka).

[3] = Drug release from hydrogels, with diffusion model fitting; assay type: physicochemical; settings: for Average drug release (last 30 min), normalized amount: released from purified mono-PEGylated albumin hydrogels (10 kDa PEG), insulins fluorescein-labelled, FIG. 5
Protocol: Both LEVEMIR® and […]® were fluorescently labelled by 5 mg/ml NHS-fluorescein (Pierce, Illinois, U.S.A.) in DMSO, with a molar ratio of 15:1 NHS-fluorescein to insulin. The solution was allowed to react for 5 hr in 4° C. and dialysed (Cellu-Sep H1, 1-kDaMW cutoff, Texas, U.S.A.) against PBS with 0.1% (w/v) of sodium azide with DMSO in decreasing concentrations of DMSO (10-0%) for 1 week.
The drug was saturated in disk-shaped hydrogel constructs prepared from PEG-DA or PEGylated proteins, that were formed into hydrogels by photopolymerization using 0.1% (w/v) Irgacure™ 2959 (Ciba Specialty Chemicals, Basel, Switzerland) and UV light (λ=365 nm, 4-5 mW/cm^2) exposure for 5 min as described elsewhere (Gonen-Wadmany et al., 2007). The hydrogel constructs were produced from six different hydrogel precursor solutions, including: (i) purified mono-PEGylated albumin in PEG-DA; (ii) non-purified mono-PEGylated albumin (containing wild-type and multi-PEGylated albumin) in PEG-DA; (iii) multi-PEGylated albumin in PEG-DA; (iv) wild-type albumin in PEG-DA; (v) PEG-DA; (vi) PEGylated fibrinogen in PEG-DA. In all cases, the protein (albumin or fibrinogen) concentration was 8.5 mg/ml, and the PEG-DA was added to reach a total PEG concentration of 7%.
Drug release from the hydrogel constructs into the supernatant was measured fluorescently (excitation at […]) in PBS with 0.1% (w/v) of sodium azide under constant agitation at 37° C. using a Varioscan plate-reader (Thermo Electron Corporation, Finland). (In the case of degradation experiments, 0.01 mg/ml of Trypsin (MP Biomedicals) was added to the PBS solution.) The raw data was normalized by the fluorescence intensity measured after 24 hours. The constructs were liquefied by homogenization or sonication (for multi-PEGylated albumin and fibrinogen), or by chemical means using 0.1 M NaOH, and the drug content was quantified to confirm complete drug release.
The drug release profiles were compared with a known model of diffusion-based release kinetics. […]

[4] = biological target: serum albumin (Homo sapiens, UniProt P02768); settings: cited from earlier work

In the case of “Albumin: bovine serum albumin (MP Biomedicals), non-PEGylated control in solution”, the “Fluorescence Intensity Ratio Comparing to Warfarin Alone” value (“Fluorescence Intensity Ratio Comparing” below) [1] was 2.8 ± 0.2, the “increase in Warfarin fluorescence when bound to albumin” value ([1]; bovine albumin, versus unbound Warfarin) was 2.8 fold and the “percent of drug (Warfarin) transported through the dialysis membrane at equilibrium” value ([2]; about 24 hr, albumin to Warfarin 5:1, room temperature) was “lowest”.

In the case of `COc1ccc2cc([C@H](C)C(=O)O)ccc2c1` [Naproxen], the “release kinetics of drugs compared” value ([3]; from purified mono-PEGylated albumin hydrogels (10 kDa PEG), p-value<0.05) was “released significantly faster” and the “Average drug release (last 30 min), normalized amount” value [3] was 0.66±0.07.

For “PEG-Alb 4 kDa: bovine serum albumin multi-PEGylated with linear 4 kDa PEG-DA, in solution”, the “Fluorescence Intensity Ratio Comparing” value [1] was 1.5 ± 0.4 and the “affinity of Warfarin to the protein by equilibrium dialysis” value [2] was “significantly less affinity”.

In the case of “PEG-Alb 1.5 kDa: bovine serum albumin multi-PEGylated with linear 1.5 kDa PEG-DA, in solution”, the “Fluorescence Intensity Ratio Comparing” value [1] was 1.6 ± 0.3 and the “affinity of Warfarin to the protein by equilibrium dialysis” value [2] was “significantly less affinity”.

In the case of “ACTRAPID®: regular human insulin formulation, 100 IU/ml, Novo Nordisk; no binding affinity to serum albumin”, the “Average drug release (last 30 min), normalized amount” value [3] is given as 0.57±0.14 and the “binding affinity to serum albumin” value [4] is given as “no binding affinity”.

With “PEG-Alb 10 kDa: bovine serum albumin multi-PEGylated with linear 10 kDa PEG-DA, in solution” the “Fluorescence Intensity Ratio Comparing” value [1] was 1.5 ± 0.5.
